# Results from patent publication US10906977B2, “Enhancing the therapeutic activity of immune checkpoint inhibitor” (Maine Medical Center Research Institute, priority 2016, dated 2021).
# How the values were obtained:
# [1] = system: chick chorioallantoic membrane (CAM); experiment: Chick CAM angiogenesis induced by soluble RGD collagen peptides; assay type: in vivo
# Protocol: (§1) The chick chorioallantoic membrane (CAM) assays were carried out with some modifications (19). For all experiments CAMs of 10-day-old chick embryos obtained from Charles River (North Franklin, Conn.) were separated from the shell membrane. Filter discs either non-treated (inflammation assays) pretreated (angiogenesis assays) with cortisone acetate (3.0 mg/ml) containing RPMI only or FGF-2 (40 ng). CAMs were either non-treated or treated topically with Mab XL313, XL166 or a non-specific control antibody (10 μg/embryo every 24 h for three consecutive treatments). […] At the end of the incubation period the embryos were sacrificed and the CAM tissues were analyzed. Angiogenesis was quantified by counting the number of angiogenic branching blood vessels within the area of the filter disc. The angiogenic index was determined by subtracting the mean number of blood vessel branch points from untreated CAMs from each experimental condition. Eight to twelve embryos were used per condition and experiments were repeated at least three times.
# [2] = system: YAP; experiment: Nuclear YAP in P-2 stimulated endothelial cells with Src or P38MAPK inhibitor; assay type: cell-based, human; conditions: inhibitor 10 μM; as compared to control; FIG. 8E, 8F
# Protocol: (§2) Endothelial cells (HUVECs or HRMVECs) were incubated in serum free media with 1 mM MgCl2, 0.2 mM MnCl2 in the presence of a Src inhibitor, PP2, (10 μM) a P38MAPK inhibitor, SB202190 (10 μM) or vehicle only (DMSO) for 10 min at 37° C. Treated cells were then seeded on to immobilized P-1 and P-2 and lysates were collected at 15 min.
# (§3) Whole cell and CAM tissue lysates were collected in RIPA buffer supplemented with 1× protease inhibitor and 1× phosphatase inhibitor and were run on polyacrylamide gels using denaturing conditions. Prior to loading the gels, 6× sample buffer was added to each of the lysates (final concentration 1×) and boiled for five minutes. Twenty to 50 μg of total protein were loaded into each lane. […] Gels were run at 60 volts (v) until the dye front passed through the stacking gel, and then the voltage was increased to 100V for the remainder of the separation. Precision Plus protein standards (Bio-Rad) were used to visualize migration. Protein was transferred to nitrocellulose membranes using a wet tank system and blocked for 1 h using 10% non-fat dried milk in tris-buffered saline with 0.01% Tween-20 (TBS-T). […] Membranes were washed 3 times in TBS-T for five minutes. Blots were then incubated with HRP conjugated secondary antibodies (1:15000) in 1% non-fat milk in TBS-T for 1 h. […] Western blot bands were quantified using Image J software based on pixel intensity.
# [3] = target: T1, β3-integrin (Homo sapiens, UniProt P05106+P06756); experiment: β3-integrin phosphorylation in endothelial cells attached to collagen peptides (Western blot); assay type: cell-based; conditions: Src inhibitor PP2 10 μM; FIG. 7E
# T1 construct: endogenous in cells; host or cells: HUVEC
# Protocol: as §2, §3
# [4] = system: P38MAPK; experiment: Phosphorylated P38MAPK in HUVECs attached to collagen peptides (Western blot); assay type: cell-based, human; conditions: Src inhibitor PP2 10 μM; FIG. 7F
# Protocol: as §2, §3
# [5] = system: chick chorioallantoic membrane (CAM); experiment: Chick CAM inflammation assay, FGF-2 induced, no cortisone acetate; assay type: in vivo; conditions: FGF-2 induced; vs no treatment or control antibody; FIG. 3E
# Protocol: The chick chorioallantoic membrane (CAM) assays were carried out with some modifications (19). For all experiments CAMs of 10-day-old chick embryos obtained from Charles River (North Franklin, Conn.) were separated from the shell membrane. Filter discs either non-treated (inflammation assays) pretreated (angiogenesis assays) with cortisone acetate (3.0 mg/ml) containing RPMI only or FGF-2 (40 ng). CAMs were either non-treated or treated topically with Mab XL313, XL166 or a non-specific control antibody (10 μg/embryo every 24 h for three consecutive treatments). For peptide induction experiments, CAMs were stimulated with 100 ng/ml of the RGD peptides (P-1, P-2, P-C) in the presence or absence of the P38MAPK inhibitor, SB202190 (10 μM). At the end of the incubation period the embryos were sacrificed and the CAM tissues were analyzed. Angiogenesis was quantified by counting the number of angiogenic branching blood vessels within the area of the filter disc. The angiogenic index was determined by subtracting the mean number of blood vessel branch points from untreated CAMs from each experimental condition. Eight to twelve embryos were used per condition and experiments were repeated at least three times.
# CAMs examined for accumulation of granulation tissue were harvested, fixed in 4% PFA and paraffin embedded and sectioned (4 μm) and stained with Giemsa. CAM tissues analyzed via immunofluorescence were harvested, embedded with OCT, snap frozen and sectioned ([…]). Frozen sections were fixed in 50% methanol/50% acetone, air dried and blocked with 2.5% BSA for 1 h at 37° C. For expression of the XL313 and XL166 epitopes as well as monocyte/macrophages, FGF-2 stimulated CAM tissues were stained with Mabs XL313, XL166 (50 μg/ml) or KUL1 (1:250) and then incubated with Alexa-488 labeled secondary antibodies (1:2000 dilution). […] Using a similar strategy, sections of RGD peptide-treated CAM tissues were analyzed for phosphorylated-P38MAPK in angiogenic vessels by co-incubation of anti-phospho-P38MAPK (1:50) and anti-vWf (1:500) antibodies. […]
# [6] = system: chick chorioallantoic membrane (CAM); experiment: Chick CAM inflammation induced by soluble RGD collagen peptides; assay type: in vivo; conditions: FIG. 5D
# Protocol: as §1
# [7] = system: endothelial cells transduced with YAP specific or non-specific shRNAs; experiment: Growth of shRNA transduced endothelial cells with soluble RGD peptides; assay type: cell-based, human; conditions: non-specific shRNA; FIG. 8G
# Protocol: (§4) HUVECs (WT, shYAP1 or control transfected) or HRMVECs were plated at 2,000 cells per well with complete EGM-2 media containing 2.0% FBS in the absence or presence of P-1, P-2 or P-C (100 ng/ml) and allowed to grow for 24 hours. Cell growth was monitored using a BrdU or MMT assay kits according to manufacturer's instructions. All assays were completed at least three times in triplicate wells.
# Raw cells were transfected with 1 μg of HuSH shRNA plasmids for collagen type I, alpha 2 using Amaxa cell line nucleofector kit V (program #T024). Constructs expressing 21-nucleotide short hairpin RNAs (shRNA) targeting human YAP (shYAP) or non-targeting control (shNT, Sigma-Aldrich, SHC002) were used. Humantargeting shYAP1 lentiviral shRNA was obtained from the Thermo Scientific RNAi consortium (TRCN0000107625). Constructs were packaged into lentivirus, pseudotyped with the vesicular stomatitis virus glycoprotein. Transduction was performed by incubating cells with lentivirus, and stably transduced cells were subsequently used for studies. All cell lines were verified by morphology and mouse and human YAP-specific PCR. […] Endothelial cells were certified mycoplasma-negative by PCR (Lonza), and primary cell cultures were used within the indicated passage numbers. Cells were transduced and selected using puromycin.
# [8] = system: HUVEC; experiment: Endothelial cell proliferation with soluble RGD peptides; assay type: cell-based, human; conditions: 100 ng/ml, 24 hours; FIG. 8C
# Protocol: as §4
# [9] = system: HRMVEC; experiment: as above; assay type: cell-based, human; conditions: 100 ng/ml, 24 hours; FIG. 8D
# Protocol: as §4
# [10] = system: Fak; experiment: Fak phosphorylation in endothelial cells attached to collagen peptides; assay type: cell-based, human; conditions: serum free conditions
# Protocol: Whole cell and CAM tissue lysates were collected in RIPA buffer supplemented with 1× protease inhibitor and 1× phosphatase inhibitor and were run on polyacrylamide gels using denaturing conditions. Prior to loading the gels, 6× sample buffer was added to each of the lysates (final concentration 1×) and boiled for five minutes. Twenty to 50 μg of total protein were loaded into each lane. For detection of proteins larger than 50 kD, 10% gels were used; for proteins smaller than 50 kD 15% gels were used. Gels were run at 60 volts (v) until the dye front passed through the stacking gel, and then the voltage was increased to 100V for the remainder of the separation. Precision Plus protein standards (Bio-Rad) were used to visualize migration. Protein was transferred to nitrocellulose membranes using a wet tank system and blocked for 1 h using 10% non-fat dried milk in tris-buffered saline with 0.01% Tween-20 (TBS-T). […] Western blot bands were quantified using Image J software based on pixel intensity.
# [11] = system: human umbilical vein endothelial cell (HUVEC); experiment: Cell adhesion to immobilized collagen RGD peptides; assay type: cell-based; conditions: peptide immobilized 100 μg/ml; FIG. 1A
# Protocol: RGD peptides (P-1, P-2, P-3, P-4, P-5, and P-C) were immobilized (100 μg/ml) to wells. HUVEC, HMVEC, HRMVEC, and HDF cells were suspended in adhesion buffer (RPMI containing 1 mM MgCl2, 0.2 mM MnCl2 and 0.5% BSA) and 1×10^5 cells were seeded into the wells in the presence or absence of P4C10, LM609, P1F6 or control antibodies (100 μg/ml). Cells were allowed to attach for 25 min at 37° C. Media containing non-attached cells was aspirated and attached cells were washed with PBS and stained with crystal violet. Cell adhesion was quantified by measuring the optical density of eluted dye. Adhesion assays were completed at least three times with triplicate wells.
# [12] = target: Denatured collagen (collagen type-I boiled 15 minutes) (UniProt P02452); experiment: integrin blocking ELISA; denatured collagen wells pre-treated with anti-HU177 (0.1 µg/ml); competitor α10β1 (2.0 µg/ml)
# [13] = target: Denatured collagen (collagen type-I boiled 15 minutes) (UniProt P02452); experiment: integrin blocking ELISA; denatured collagen wells pre-treated with anti-HU177 (0.1 µg/ml); competitor α2β1 (2.0 µg/ml)
# [14] = target: Denatured collagen (collagen type-I boiled 15 minutes) (UniProt P02452); experiment: cell-based or functional assay
# [15] = target: integrin αvβ3 on cells (HUVEC endothelial cells, M21 melanoma cells, human T-cells) (human, UniProt P06756 31-1048; P05106 27-788); experiment: cell-based or functional assay
# Chain of integrin αvβ3 on cells (HUVEC endothelial cells, M21 melanoma cells, human T-cells) (P06756 31-1048, chain 1 of 2): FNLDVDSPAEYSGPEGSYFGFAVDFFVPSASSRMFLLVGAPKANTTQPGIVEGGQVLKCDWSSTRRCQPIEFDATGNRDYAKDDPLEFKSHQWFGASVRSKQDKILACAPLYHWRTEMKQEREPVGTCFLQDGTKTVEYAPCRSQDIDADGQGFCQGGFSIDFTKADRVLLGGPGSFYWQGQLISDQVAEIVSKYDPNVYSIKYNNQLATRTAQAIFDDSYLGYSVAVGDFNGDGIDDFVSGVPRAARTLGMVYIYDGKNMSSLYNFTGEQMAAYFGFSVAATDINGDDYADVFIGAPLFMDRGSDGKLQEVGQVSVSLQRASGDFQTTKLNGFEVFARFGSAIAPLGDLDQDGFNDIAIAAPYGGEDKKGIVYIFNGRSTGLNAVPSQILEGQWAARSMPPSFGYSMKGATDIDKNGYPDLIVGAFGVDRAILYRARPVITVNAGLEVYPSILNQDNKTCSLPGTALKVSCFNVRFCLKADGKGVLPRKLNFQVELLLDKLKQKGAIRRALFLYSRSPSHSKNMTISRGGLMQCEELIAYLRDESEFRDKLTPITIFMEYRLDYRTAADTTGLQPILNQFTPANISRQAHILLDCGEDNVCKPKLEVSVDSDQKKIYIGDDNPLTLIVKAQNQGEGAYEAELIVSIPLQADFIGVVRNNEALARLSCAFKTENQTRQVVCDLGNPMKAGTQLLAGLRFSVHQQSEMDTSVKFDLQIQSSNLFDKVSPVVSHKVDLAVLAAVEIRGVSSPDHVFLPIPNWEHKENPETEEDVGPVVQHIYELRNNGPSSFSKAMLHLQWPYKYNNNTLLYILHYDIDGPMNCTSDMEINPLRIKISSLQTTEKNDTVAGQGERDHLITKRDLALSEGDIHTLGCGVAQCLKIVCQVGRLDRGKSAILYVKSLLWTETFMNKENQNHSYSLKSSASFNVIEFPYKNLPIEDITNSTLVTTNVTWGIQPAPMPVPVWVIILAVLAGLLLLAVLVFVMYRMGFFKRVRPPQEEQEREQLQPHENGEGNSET
# Chain of integrin αvβ3 on cells (HUVEC endothelial cells, M21 melanoma cells, human T-cells) (P05106 27-788, chain 2 of 2): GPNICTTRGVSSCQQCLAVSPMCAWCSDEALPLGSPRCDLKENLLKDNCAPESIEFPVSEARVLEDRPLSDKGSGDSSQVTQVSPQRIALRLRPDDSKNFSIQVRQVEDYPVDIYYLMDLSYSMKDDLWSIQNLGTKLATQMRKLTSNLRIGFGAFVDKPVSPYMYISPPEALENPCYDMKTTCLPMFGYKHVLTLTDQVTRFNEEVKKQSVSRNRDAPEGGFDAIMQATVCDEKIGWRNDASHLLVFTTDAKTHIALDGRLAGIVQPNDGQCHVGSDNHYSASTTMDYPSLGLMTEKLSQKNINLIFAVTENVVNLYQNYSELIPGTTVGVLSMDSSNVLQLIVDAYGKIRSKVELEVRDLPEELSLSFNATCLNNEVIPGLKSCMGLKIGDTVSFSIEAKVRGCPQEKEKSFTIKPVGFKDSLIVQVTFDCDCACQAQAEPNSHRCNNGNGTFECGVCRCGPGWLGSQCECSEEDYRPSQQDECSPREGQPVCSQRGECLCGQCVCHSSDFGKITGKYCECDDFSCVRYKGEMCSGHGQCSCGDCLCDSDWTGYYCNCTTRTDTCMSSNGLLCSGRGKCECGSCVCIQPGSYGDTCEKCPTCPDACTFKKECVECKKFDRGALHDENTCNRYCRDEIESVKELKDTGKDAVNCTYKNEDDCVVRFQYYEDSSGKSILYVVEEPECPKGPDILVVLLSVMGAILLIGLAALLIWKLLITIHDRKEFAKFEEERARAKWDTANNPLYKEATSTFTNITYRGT
# T1 sequence (P05106 27-788): as the sequence (P05106 27-788, chain 2 of 2) above
# T1 sequence (P06756 31-889 limits assumed): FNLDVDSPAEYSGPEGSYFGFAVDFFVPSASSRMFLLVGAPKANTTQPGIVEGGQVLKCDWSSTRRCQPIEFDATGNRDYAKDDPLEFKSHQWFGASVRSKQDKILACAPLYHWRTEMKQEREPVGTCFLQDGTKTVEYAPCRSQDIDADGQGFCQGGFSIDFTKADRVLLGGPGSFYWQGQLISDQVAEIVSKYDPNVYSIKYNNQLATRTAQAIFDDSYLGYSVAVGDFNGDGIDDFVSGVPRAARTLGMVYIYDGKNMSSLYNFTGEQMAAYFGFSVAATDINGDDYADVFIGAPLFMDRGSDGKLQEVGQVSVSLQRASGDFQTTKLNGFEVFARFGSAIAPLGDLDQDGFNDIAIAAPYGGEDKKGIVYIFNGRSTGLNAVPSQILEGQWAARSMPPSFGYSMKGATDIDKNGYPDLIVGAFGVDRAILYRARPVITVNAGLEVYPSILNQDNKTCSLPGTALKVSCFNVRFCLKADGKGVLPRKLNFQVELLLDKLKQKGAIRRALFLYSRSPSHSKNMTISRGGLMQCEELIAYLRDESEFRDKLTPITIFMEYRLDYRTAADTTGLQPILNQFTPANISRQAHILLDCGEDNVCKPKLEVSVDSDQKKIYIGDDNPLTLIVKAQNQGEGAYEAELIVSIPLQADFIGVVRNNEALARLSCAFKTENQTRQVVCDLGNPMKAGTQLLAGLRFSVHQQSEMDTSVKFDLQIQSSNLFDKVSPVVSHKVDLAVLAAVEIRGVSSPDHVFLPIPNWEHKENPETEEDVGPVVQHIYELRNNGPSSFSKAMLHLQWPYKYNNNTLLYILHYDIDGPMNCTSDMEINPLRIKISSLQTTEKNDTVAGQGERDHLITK
# T1 sequence (P06756 891-1048 partner limits assumed): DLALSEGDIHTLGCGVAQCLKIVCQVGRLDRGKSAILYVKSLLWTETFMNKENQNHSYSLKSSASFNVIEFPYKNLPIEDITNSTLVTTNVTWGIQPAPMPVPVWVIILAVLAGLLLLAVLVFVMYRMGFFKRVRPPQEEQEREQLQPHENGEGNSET
molecule,measurement,setting,value
"Oc1ccc(-c2nc(-c3ccncc3)c(-c3ccc(F)cc3)[nH]2)cc1 [P38MAPK inhibitor, SB202190, reference compound]",effect on P-2 induced angiogenesis in vivo,"[1]; SB202190 10 μM, FIG. 6F",reduced
same,reduction of nuclear YAP accumulation following P-2 stimulation,[2],approximately 50%
"CC(C)(C)n1nc(-c2ccc(Cl)cc2)c2c(N)ncnc21 [Src inhibitor, PP2, reference compound]",reduction of nuclear YAP accumulation following P-2 stimulation,[2],approximately 50%
same,β3 phosphorylation following binding to collagen peptide P-2,[3],reduced
same,P38MAPK phosphorylation following binding to collagen peptide P-2,[4],reduced
CC(=O)OCC(=O)[C@@]1(O)CC[C@H]2[C@@H]3CCC4=CC(=O)CC[C@]4(C)[C@H]3C(=O)C[C@@]21C [cortisone acetate],reduction of the percentage of CAMs exhibiting thickening / inflammation,[5],greater than 80%
"CKGDRGDAPGC [Mab P-1, RGDAPG containing collagen type-I peptide (…) with flanking cysteines]",CAM inflammation following stimulation with peptide,[6],Minimal evidence of tissue inflammation
same,growth of control transduced endothelial cells with soluble peptide,[7],not
same,induction of CAM angiogenesis as compared to no treatment,"[1]; soluble peptide, FIG. 5C",not
same,HUVEC growth with soluble peptide,[8],minimal effect
same,HRMVEC growth with soluble peptide,[9],minimal effect
same,Fak phosphorylation following ligation of peptide,[10],Minimal Fak phosphorylation
CRGPRGDQGPC [Mab P-5],HUVEC adhesion to immobilized peptide,[11],highest levels of adhesion
Mab HU177 (antibody),percent inhibition of α10β1 binding to denatured collagen,[12],60%
same,percent inhibition of α2β1 binding to denatured collagen,[13],30%
same,basal migration of SKOV-3 cells and fibroblasts on denatured collagen,[14],35 to 38%
same,decrease in SKOV-3 cell adhesion to denatured collagen,[14],40%
same,decrease in fibroblast adhesion to denatured collagen,[14],50%
CQGPRGDKGEC [Synthetic collagen RGD containing peptide P-2 (CQGPRGDKGEC)],Src phosphorylation in endothelial cells attached to the peptide (Western blot),[15],~2 fold
same,β3-integrin phosphorylation in endothelial cells attached to the peptide (Western blot),[15],> 3 fold
